These results are taken from patent US11845770B2, “Ascaroside derivatives and methods of use” (California Institute of Technology, priority 2019, dated 2023).

A short description of series [1]: Plasma protein binding, HT-Dialysis (rat). To be noted: pH 7.4, dialysis 4 hours, read-out: percent unbound. Format: in vitro ADME. Here is the method:
HT-Dialysis plate (Model HTD 96 b, Cat #1006) and the dialysis membrane (molecular weight cut off 12-14 KDa, Cat #1101) can be purchased from HT Dialysis LLC (Gales Ferry, CT).
The plasma was thawed under running cold tap water and centrifuged at 3220×g for 5 min to remove any clots. The pH value was checked and recorded. Only plasma within range of pH 7.0 to pH 8.0 was used. The dialysis membrane was pretreated according to the manufacturer's instructions. Briefly, the dialysis membrane strips were soaked in ultra-pure water at room temperature for approximately 1 hr. After that, each membrane strip that contained 2 membranes was separated and soaked in ethanol:water (20:80 v:v) for approximately 20 min. The membrane was rinsed and soaked for 20 min in ultra-pure water.
Aliquots of 50 μL loading plasma (matrix) containing compound 1 or warfarin in triplicate were transferred to the appropriate wells of a sample collection plate. The samples were matched with dialysis buffer to obtain a final volume of 100 μL with a volume ratio of plasma (matrix):dialysis buffer (1:1, v:v) in each well. […]
The % Unbound, % Bound, % Recovery and % Remaining were calculated using the following equations: % Unbound=100×F/T % Bound=100−% Unbound % Recovery=100×(F+T)/T0 • F=the compound 1 concentration on the receiver side of the membrane/Correction Factor. […]

A short description of series [2]: Stability in plasma (mouse). To be noted: after 120 minutes, 37° C. The format is in vitro ADME. The procedure: The pH of plasma was adjusted to 7.4±0.1 if required. 1 mM intermediate solution was prepared by diluting 10 μL of the 10 mM stock solution of 1 with 90 μL DMSO; 1 mM intermediate of positive control propantheline bromide was prepared by diluting 10 μL of the stock solution with 90 μL ultra-pure water. 100 μM dosing solution was prepared by diluting 10 μL of the 1 mM intermediate solution with 90 μL of 45% MeOH/H2O. 98 μL of blank plasma was spiked with 2 μL of the 100 μM dosing solution to achieve a final concentration of 2 μM of the compound in duplicate. Samples were incubated at 37° C. in a water bath. At each time point (0, 10, 30, 60 and 120 min), 400 μL of stop solution (200 ng/mL tolbutamide plus 200 ng/mL labetalol in 50% ACN/MeOH) was added and was mixed thoroughly to precipitate protein. Sample plates were centrifuged at 4,000 rpm for 10 min. An aliquot of supernatant (100 μL) was transferred from each well and was mixed with 200 μL ultra-pure water. The samples were shaken at 800 rpm for about 10 min before LC/MS/MS analysis.
The remaining percentage of compound 1 (test article) after incubation was calculated according to the following equation.

Series [3] concerns EPC2 human esophageal keratinocytes. The series is described as follows: Stimulation of EPC2-hTERT human esophageal keratinocytes with Poly(I:C). The format is cell-based. To be noted: 24 hours, increasing concentrations. The procedure:
EPC2-hTERT (EPC2) cells were maintained in supplemented keratinocyte serum-free medium (KSFM) with 0.09 mM calcium chloride containing epidermal growth factor (5 ng/mL), bovine pituitary extract ([…]), penicillin (100 units/mL), and streptomycin ([…]) (ThermoFisher #17005042) at 37° C. with 5% (v/v) CO2. EPC2 cells were seeded in 12-well plates at 0.55×10^6 cells per well in supplemented KSFM at 37° C. with 5% (v/v) CO2 and after 6 hours the old media is removed and changed with fresh media. After overnight incubation, the old media is changed to supplemented KSFM containing 1.8 mM calcium chloride and incubated for 72 hours at 37° C. with 5% (v/v) CO2. After the old media is removed and fresh supplemented KSFM containing 1.8 mM calcium chloride is added, the cells are pre-treated with different concentrations of compounds (0, 1, 10, 100, 500, 1000 μM) for 1 hour prior to stimulation. To stimulate the cells, Poly (I:C) (Tocris #4287) is added to the wells at […] concentration without removing the media and incubated for 24 hours at 37° C. with 5% (v/v) CO2. Supernatants are collected in Eppendorf tubes, centrifuged in a microfuge at maximum speed for 10 minutes at 4° C., and the centrifuged supernatants stored at −80° C. until quantitative detection assays are performed. Human Interleukin-6 (IL-6), Monocyte Chemoattractant Protein-1 (MCP-1), and Thymic stromal lymphopoietin (TSLP) released from supernatants collected post stimulation were measured using the AlphaLISA detection kit for human IL-6, MCP-1, and TSLP, respectively.

Entries after “also recorded” stand apart in the source; their conditions may differ.

As for `C[C@H](CC/C=C/C(=O)O)O[C@@H]1O[C@@H](C)[C@H](O)C[C@H]1O` [ascr #7, reference compound], in series [1], the fraction unbound at 4 h was determined as 0.946. Moreover, the “remaining percentage after incubation” value in series [2] is recorded as 103.4%.
As for `C[C@H](CC/C=C/C(=O)OC(C)(C)C)O[C@@H]1O[C@@H](C)[C@H](O)C[C@H]1O` [Compound 1, tert-butyl (2E,6R)-6-{[(2R,3R,5R,6S)-3,5-dihydroxy-6-methyloxan-2-yl]oxy}hept-2-enoate], the “percent inhibition relative to Stimulated of TSLP expression” value in series [3] (FIG. 19A) is listed as “statistically significant inhibition; also recorded: robust blocking”. The “percent inhibition relative to Stimulated of IL-6 expression” value in series [3] (FIG. 19B) is recorded as “inhibited IL-6 expression in statistically significant, dose-dependent manner”. In series [3] (FIG. 19C), the “percent inhibition relative to Stimulated of MCP-1 expression” value was “inhibited MCP-1 expression in statistically significant, dose-dependent manner”.
